Data reported in US8067445B2, “N,N-disubstituted aminoalkylbiphenyl antagonists of prostaglandin D2 receptors” (Panmira Pharmaceuticals, LLC, priority 2008, dated 2011).

Columns and labels:
[1] = target: T1, human DP2 receptor (Homo sapiens, UniProt Q9Y5Y4); experiment: DP2/CRTH2 radioligand binding assay ([3H]PGD2); conditions: [3H]PGD2 binding, membranes of HEK293 cells expressing human DP2; read-out: hDP2
T1 construct: expressed in transfected cells
T1 sequence (Q9Y5Y4 1-395): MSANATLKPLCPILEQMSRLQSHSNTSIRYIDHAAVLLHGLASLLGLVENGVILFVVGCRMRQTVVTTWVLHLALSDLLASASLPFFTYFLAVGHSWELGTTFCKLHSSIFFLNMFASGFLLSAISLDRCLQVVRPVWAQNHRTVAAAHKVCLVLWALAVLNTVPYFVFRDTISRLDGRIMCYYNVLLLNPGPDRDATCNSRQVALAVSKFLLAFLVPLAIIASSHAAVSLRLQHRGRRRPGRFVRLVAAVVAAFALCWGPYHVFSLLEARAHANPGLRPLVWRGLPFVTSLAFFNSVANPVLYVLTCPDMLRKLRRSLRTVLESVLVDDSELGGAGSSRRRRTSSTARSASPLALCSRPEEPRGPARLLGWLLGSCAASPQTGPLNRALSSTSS
Summary of the method: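 Membranes from HEK293 cells stably expressing recombinant human DP2 incubated 60 min at room temperature with 1 nM [3H]PGD2 and compound in pH 7.4 Hepes/MnCl2/EDTA buffer, ± 0.2% human serum albumin. Bound radioactivity measured after filtration; non-specific binding defined with 10 μM PGD2. IC50 from titration curves.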

[2] = target: T2, human DP1 receptor (Homo sapiens, UniProt Q13258); experiment: DP1 radioligand binding assay ([3H]BWA868C, platelet membranes); conditions: [3H]BWA868C binding, human platelet membranes; read-out: hDP1
T2 construct: tissue Biological Specialty Corporation; host or cells: human platelet membranes
T2 sequence (Q13258 1-359): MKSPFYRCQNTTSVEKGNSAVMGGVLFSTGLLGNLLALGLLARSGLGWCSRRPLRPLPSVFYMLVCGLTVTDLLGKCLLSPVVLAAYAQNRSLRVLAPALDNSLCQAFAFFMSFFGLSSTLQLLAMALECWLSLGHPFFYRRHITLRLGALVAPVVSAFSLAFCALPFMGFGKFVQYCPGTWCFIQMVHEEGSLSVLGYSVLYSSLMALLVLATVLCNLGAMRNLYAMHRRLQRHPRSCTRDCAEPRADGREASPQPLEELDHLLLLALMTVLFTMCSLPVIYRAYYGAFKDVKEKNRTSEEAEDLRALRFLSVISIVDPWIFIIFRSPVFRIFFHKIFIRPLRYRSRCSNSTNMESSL
Summary of the method: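 Human platelet membranes (20 μg protein/well) incubated 60 min at room temperature with 2 nM [3H]BWA868C and compound in 50 mM Hepes, 10 mM MnCl2, 1 mM EDTA, pH 7.4, ± 0.2% human serum albumin. Bound radioactivity measured after filtration; nonspecific binding defined with 10 μM BWA868C; IC50 from titration curves.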

Row | Structure (SMILES) | IC50 [1] | IC50 [2]
1 | CCN(Cc1cc(C(F)(F)F)ccc1-c1cc(CC(=O)O)ccc1OC)C(=O)Cn1cncn1 [Compound 1-150, (2′-{[Ethyl-(2-[1,2,4]triazol-1-yl-acetyl)-amino]-methyl}-6-methoxy-4′-trifluoromethyl-biphenyl-3-yl)-acetic acid] | 0.3 to 1 µM | 1 to 30 µM
2 | CCN(Cc1cc(C(F)(F)F)ccc1-c1cc(CC(=O)O)ccc1OC)C(=O)CN1CCCC1 [Compound 1-151, (2′-{[Ethyl-(2-pyrrolidin-1-yl-acetyl)-amino]-methyl}-6-methoxy-4′-trifluoromethyl-biphenyl-3-yl)-acetic acid] | 1 to 30 µM | 1 to 30 µM
3 | CCN(Cc1cc(NC(=O)c2ccc(Cl)cc2)ccc1-c1cc(CC(=O)O)ccc1OC)C(=O)OCc1ccccc1 [Compound 1-154, [2′-[(Benzyloxycarbonyl-ethyl-amino)-methyl]-4′-(4-chloro-benzoylamino)-6-methoxy-biphenyl-3-yl]-acetic acid] | < 0.3 µM | 1 to 30 µM
4 | CCN(Cc1cc(NS(=O)(=O)c2ccc(Cl)cc2)ccc1-c1cc(CC(=O)O)ccc1OC)C(=O)OCc1ccccc1 [Compound 1-156, [2′-[(Benzyloxycarbonyl-ethyl-amino)-methyl]-4′-(4-chloro-benzenesulfonylamino)-6-methoxy-biphenyl-3-yl]-acetic acid] | < 0.3 µM | 1 to 30 µM
5 | CCN(Cc1cc(C(F)(F)F)ccc1-c1cc(Cl)cc(CC(=O)O)c1)C(=O)NCc1ccccc1 [Compound 1-157, [2′-(3-Benzyl-1-ethyl-ureidomethyl)-5-chloro-4′-trifluoromethyl-biphenyl-3-yl]-acetic acid] | < 0.3 µM | 1 to 30 µM
6 | CCN(Cc1cc(C(F)(F)F)ccc1-c1cc(CC(=O)O)cc(C(F)(F)F)c1)C(=O)NCc1ccccc1 [Compound 1-158, [2′-(3-Benzyl-1-ethyl-ureidomethyl)-5,4′-bis-trifluoromethyl-biphenyl-3-yl]-acetic acid] | < 0.3 µM | 1 to 30 µM
7 | CCN(Cc1cc(C(F)(F)F)ccc1-c1cc(F)cc(CC(=O)O)c1)C(=O)NCc1ccccc1 [Compound 1-159, [2′-(3-Benzyl-1-ethyl-ureidomethyl)-5-fluoro-4′-trifluoromethyl-biphenyl-3-yl]-acetic acid] | < 0.3 µM | 1 to 30 µM
8 | CCN(Cc1cc(C(F)(F)F)ccc1-c1cc(CC(=O)O)cc(C(F)(F)F)c1)C(=O)OC [Compound 1-163, {2′-[(Ethyl-methoxycarbonyl-amino)-methyl]-5,4′-bis-trifluoromethyl-biphenyl-3-yl}-acetic acid] | < 0.3 µM | 1 to 30 µM
9 | CCN(Cc1cc(C(F)(F)F)ccc1-c1cc(Cl)cc(CC(=O)O)c1)C(=O)OC [Compound 1-164, {5-Chloro-2′-[(ethyl-methoxycarbonyl-amino)-methyl]-4′-trifluoromethyl-biphenyl-3-yl}-acetic acid] | < 0.3 µM | 1 to 30 µM
10 | CCN(Cc1ccc(C(F)(F)F)cc1-c1cc(CC(=O)O)ccc1OC)C(=O)OCc1ccc(F)cc1 [Compound 1-168, (2′-{[Ethyl-(4-fluoro-benzyloxycarbonyl)-amino]-methyl}-6-methoxy-5′-trifluoromethyl-biphenyl-3-yl)-acetic acid] | < 0.3 µM | 0.3 to 1 µM
11 | CCN(Cc1ccc(C)cc1-c1cc(CC(=O)O)ccc1OC)C(=O)OCc1ccc(F)cc1 [Compound 1-169, (2′-{[Ethyl-(4-fluoro-benzyloxycarbonyl)-amino]-methyl}-6-methoxy-5′-methyl-biphenyl-3-yl)-acetic acid] | < 0.3 µM | 1 to 30 µM
12 | CCN(Cc1ccc(C(F)(F)F)cc1-c1cc(CC(=O)O)ccc1OC)C(=O)C1CC1 [Compound 1-170, {2′-[(Cyclopropanecarbonyl-ethyl-amino)-methyl]-6-methoxy-5′-trifluoromethyl-biphenyl-3-yl}-acetic acid] | < 0.3 µM | 1 to 30 µM
13 | CCN(Cc1ccc(C)cc1-c1cc(CC(=O)O)ccc1OC)C(=O)C1CC1 [Compound 1-171, {2′-[(Cyclopropanecarbonyl-ethyl-amino)-methyl]-6-methoxy-5′-methyl-biphenyl-3-yl}-acetic acid] | < 0.3 µM | 1 to 30 µM
14 | CCN(Cc1ccc(C(F)(F)F)cc1-c1cc(CC(=O)O)ccc1OC)C(=O)NCc1ccccc1 [Compound 1-172, [2′-(3-Benzyl-1-ethyl-ureidomethyl)-6-methoxy-5′-trifluoromethyl-biphenyl-3-yl]-acetic acid] | < 0.3 µM | 1 to 30 µM
15 | CCN(Cc1ccc(C)cc1-c1cc(CC(=O)O)ccc1OC)C(=O)NCc1ccccc1 [Compound 1-173, [2′-(3-Benzyl-1-ethyl-ureidomethyl)-6-methoxy-5′-methyl-biphenyl-3-yl]-acetic acid] | < 0.3 µM | 1 to 30 µM
16 | CCN(Cc1ccc(C(F)(F)F)cc1-c1cc(CC(=O)O)ccc1OC)C(=O)OCc1ccc(Cl)cc1 [Compound 1-174, (2′-{[(4-Chloro-benzyloxycarbonyl)-ethyl-amino]-methyl}-6-methoxy-5′-trifluoromethyl-biphenyl-3-yl)-acetic acid] | < 0.3 µM | 0.3 to 1 µM
17 | CCN(Cc1ccc(C)cc1-c1cc(CC(=O)O)ccc1OC)C(=O)OCc1ccc(Cl)cc1 [Compound 1-175, (2′-{[(4-Chloro-benzyloxycarbonyl)-ethyl-amino]-methyl}-6-methoxy-5′-methyl-biphenyl-3-yl)-acetic acid] | < 0.3 µM | 0.3 to 1 µM
18 | CCN(Cc1cc(C(F)(F)F)ccc1-c1cc(CC(=O)O)ccc1OC)C(=O)NC1CC1 [Compound 1-182] | < 0.3 µM | 1 to 30 µM
19 | CCN(Cc1cc(C(F)(F)F)ccc1-c1cc(CC(C)(C)O)ccc1OC)C(C)=O [Compound 2-2, N-Ethyl-N-[5′-(2-hydroxy-2-methyl-propyl)-2′-methoxy-4-trifluoromethyl-biphenyl-2-ylmethyl]-acetamide] | 1 to 30 µM | 1 to 30 µM
20 | CCN(Cc1cc(C(F)(F)F)ccc1-c1cc(CC#N)ccc1OC)C(=O)C1CC1 [Compound 2-3, Cyclopropanecarboxylic acid (5′-cyanomethyl-2′-methoxy-4-trifluoromethyl-biphenyl-2-ylmethyl)-ethyl-amide] | > 30 µM | 1 to 30 µM
21 | CCN(Cc1cc(C(F)(F)F)ccc1-c1cc(CC#N)ccc1OC)C(=O)OCc1ccccc1 [Compound 2-4, (5′-Cyanomethyl-2′-methoxy-4-trifluoromethyl-biphenyl-2-ylmethyl)-ethyl-carbamic acid benzyl ester] | > 30 µM | 1 to 30 µM
22 | CCN(Cc1cc(C(F)(F)F)ccc1-c1cc(Cc2nn[nH]n2)ccc1OC)C(=O)OCc1ccccc1 [Compound 2-5, Ethyl-[2′-methoxy-5′-(2H-tetrazol-5-ylmethyl)-4-trifluoromethyl-biphenyl-2-ylmethyl]-carbamic acid benzyl ester] | < 0.3 µM | < 0.3 µM
23 | CCN(Cc1cc(C(F)(F)F)ccc1-c1cc(CC(N)=O)ccc1OC)C(=O)OCc1ccccc1 [Compound 2-6, (5′-Carbamoylmethyl-2′-methoxy-4-trifluoromethyl-biphenyl-2-ylmethyl)-ethyl-carbamic acid benzyl ester] | 1 to 30 µM | 1 to 30 µM
24 | CCN(Cc1cc(C(F)(F)F)ccc1-c1cc(Cc2nn[nH]n2)ccc1OC)C(=O)C1CC1 [Compound 2-7, Cyclopropanecarboxylic acid ethyl-[2′-methoxy-5′-(2H-tetrazol-5-ylmethyl)-4-trifluoromethyl-biphenyl-2-ylmethyl]-amide] | 1 to 30 µM | 1 to 30 µM
25 | CCN(Cc1cc(C(F)(F)F)ccc1-c1cc(CC(N)=O)ccc1OC)C(=O)C1CC1 [Compound 2-8, Cyclopropanecarboxylic acid (5′-carbamoylmethyl-2′-methoxy-4-trifluoromethyl-biphenyl-2-ylmethyl)-ethyl-amide] | 1 to 30 µM | 1 to 30 µM
